Laboratory results reported in patent US10814010B2, “FOXC2 inhibitor and methods of use thereof” (The Board of Regents of The University of Texas System, priority 2018, dated 2020).
pEC50, pKd: −log10 of the molar value.

Experiments:
PC3 cells [1] = test: Transwell invasion assay, PC3; assay type: cell-based; conditions: PC3, 24 hours, vs DMSO
Method: Following determination of both inhibition of EMT and CSC properties, the inhibition of the migratory and invasive capabilities of both cell lines following MC-1-F2 treatment was examined through the use of a transwell invasion assay.
(§1) Matrigel invasion chambers (Corning) were allowed to come to room temperature and allowed to rehydrate for 2 hours in a cell incubator. Cells were treated 24 hours prior to assay and starved in 2% FBS in DMEM for 2 hours prior to assay. A cell suspension containing 5×10^4 cells/mL was prepared. Chemoattractant (DMEM+10% FBS) was added to the bottom of the wells. Using forceps, the inserts were transferred inside the wells and 0.5 mL of cell suspension was immediately added. The chambers were incubated for 22 hours in a humidified tissue culture incubator. After the 22 hours, the non-invading cells were removed by scrubbing the surface of the membrane. The cells were fixated with 4% formaldehyde solution for 2 minutes at room temperature. Followed by permeabilization of the membrane with 100% MeOH for 20 minutes at room temperature. The cells were stained with 0.5% crystal violet solution and several images of the wells were then taken and total number of cells counted for analysis.

PC3 cells [2] = test: Co-treatment MTT assay, PC3; conditions: constant ratio
full-length FOXC2 = target: T1, full-length FOXC2 (Homo sapiens, UniProt Q99958); test: ELISA-like binding assay, immobilized full-length FOXC2; conditions: biotinylated compound, immobilized recombinant full-length FOXC2, Qdot655 fluorescence
T1 construct: human FOXC2 protein (amino acid residues 1-501) with a C-terminal 6 histidine tag; made in house; host or cells: E. coli BL21(DE3)
T1 sequence (Q99958 1-501): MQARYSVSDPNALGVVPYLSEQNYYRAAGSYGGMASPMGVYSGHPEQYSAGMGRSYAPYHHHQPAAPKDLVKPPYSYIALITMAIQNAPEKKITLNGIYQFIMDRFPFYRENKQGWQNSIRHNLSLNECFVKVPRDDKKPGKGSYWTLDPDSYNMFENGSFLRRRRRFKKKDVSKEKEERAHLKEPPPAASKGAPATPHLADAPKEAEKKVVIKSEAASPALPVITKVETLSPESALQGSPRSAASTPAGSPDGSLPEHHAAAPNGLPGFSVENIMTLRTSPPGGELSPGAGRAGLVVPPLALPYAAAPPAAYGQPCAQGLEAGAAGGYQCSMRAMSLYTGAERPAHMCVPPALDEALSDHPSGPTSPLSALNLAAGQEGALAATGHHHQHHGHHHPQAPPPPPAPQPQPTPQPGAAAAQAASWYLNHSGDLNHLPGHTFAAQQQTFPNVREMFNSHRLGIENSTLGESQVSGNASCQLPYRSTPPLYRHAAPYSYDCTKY
Method: The binding affinity of MC-1-F2 to full-length FOXC2 was determined using an ELISA-like binding assay. In this assay, varying concentrations of biotinylated MC-1-F2 or biotinylated MC-C (control; FIG. 12) were incubated in the wells with immobilized recombinant full-length FOXC2 or the DNA binding domain (DBD) of FOXC2 (FIG. 2A). After washing off unbound ligand, the wells were incubated with streptavidin-conjugated Qdot655, followed by fluorescence measurement of the wells using a plate reader. […] This is important for the specificity of MC-1-F2 to FOXC2 as several forkhead transcription factors share a very similar DNA-binding domain.
Clear bottom, black wall, 96 well plate (Corning) was coated with 1 μg/mL of full length FOXC2 or DNA binding domain (DBD) of FOXC2 protein in sensitizing buffer (0.621 g NaHCO3, 0.275 g Na2CO3 in 100 mL of water pH=9.5) overnight at 4° C. Wells were washed 3 times with 200 μL of wash buffer (lx PBS with 0.05% Tween-20). Wells were blocked with blocking buffer (1% BSA in 1×PBS with 0.05% Tween-20) for 1 hour at room temperature. 50 μL of serial dilutions of biotinylated compound in blocking buffer were added to each well and incubated for 1 hour at room temperature. Followed was the addition of […] of 20 nM of strepavidin-Qdot655 in blocking buffer for 1 hour at room temperature. […] Fluorescence was measured using a plate reader (Ex. 495, Em. 655).

MDA-MB-231 cells = test: Transwell invasion assay, MDA-MB-231; assay type: cell-based; conditions: MDA-MB-231, 20 μM, 24 hours
Method: Reversal of EMT mediated by MC-1-F2 was anticipated to lead to the inhibition of metastatic capability of cancer cells. […] A wound healing assay was carried out to examine the migratory capabilities of cells in closing a “wound” or gap over a period of 24 hours. […] Inhibition of migratory capabilities of cells only measures one aspect of EMT progression. EMT is marked also by increased invasiveness of cancer cells. Therefore, the invasive property of MDA-MB-231 cells treated with MC-1-F2 was examined (FIGS. 6B&C).
as §1, with “The cells were fixated with 4% formaldehyde solution for 2 minutes at room temperature. Followed by permeabilization of the membrane with 100% MeOH for 20 minutes at room temperature.” left out

PC3 cells [3] = test: MTT cell viability assay, PC3; assay type: cell-based; conditions: Homo sapiens, PC-3, 24 hour treatment
Excerpt: Inhibition of EMT in CRPC could lead to a new form of therapeutics to aid once androgen-independence is achieved. However, in order for MC-1-F2 to be considered an effective chemotherapeutic agent, its EC50 in prostate cancer needed to be determined as well as how it compares to other chemotherapeutic agents on the market and whether it is able to inhibit chemoresistance or lower the sensitivity of CRPC to commercially available drugs. In order to determine the EC50 of MC-1-F2, an MTT assay on cell viability was performed in both DU145 and PC3. […] These doses are higher than those encountered with breast cancer cell lines. This is most likely due to the lower FOXC2 expression levels founds in prostate cell lines when compared to the breast cell lines.
Cell viability was assessed by MTT (3-(4,5-Dimethylthiazol-2-yl)-2,5-Diphenyltetrazolium Bromide) assay 5,000 cells were seeded on a 96-well cell culture plate and were incubated for at least 24 hours prior to drug treatment. The MTT reagent (Fisher Scientific) was added to the culture medium 3 hours prior to the end of compound incubation. The reaction took place in the 37° C. incubator with 5% CO2 for 3 hours. Cell culture medium was then removed from the wells. Cells with the insoluble purple formazan were lysed with DMSO for 10 mins at room temperature, 200 μL per well. Absorbance was read at 570 nm using a plate reader.

pKd (full-length FOXC2): 4.59 | pEC50 (PC3 cells [3]): 4.33
Structure (SMILES): N=C(N)NCCCCNc1nc(Nc2ccc(Oc3ccccc3)cc2)nc(N2CCN(c3nc(N)nc(Nc4ccc(N5CCOCC5)cc4)n3)CC2)n1 [MC-1-F2]
invasiveness (transwell invasion) (PC3 cells [1]): remarkable inhibition in invasiveness | combination index with docetaxel (CompuSyn) (PC3 cells [2]): negative combination index | combination effect with docetaxel (PC3 cells [2]; 24 hours): synergistic effects | combination effect with enzalutamide (CompuSyn) (PC3 cells [2]; 24 hours): only additive effects | invasive property (transwell invasion) (MDA-MB-231 cells): decrease in the invasive property
